Measured values: patent publication US20250188044A1 (HARBIN MEDISAN PHARMACEUTICAL CO., LTD., priority 2021, published 2025)
Like-named read-outs stand apart in the source and are kept apart here.

Tests used:
[1] = biological target: T1, PPARα (Homo sapiens, UniProt Q07869); assay: Gal4-PPARα(LBD) reporter gene agonistic activity assay in Cos-7 cells; assay type: cell-based; conditions: for EC50: Cos-7 cells, Gal4-PPARα(LBD) reporter, 16 h, 100% = GW7647 10 nM; for agonistic activity for PPARα (EC50 level, in words): Cos-7 reporter assay
T1 construct: hPPARα (279aa-580aa); expressed in transfected cells; host or cells: Cos-7
T1 sequence (Q07869 167-468 limits assumed): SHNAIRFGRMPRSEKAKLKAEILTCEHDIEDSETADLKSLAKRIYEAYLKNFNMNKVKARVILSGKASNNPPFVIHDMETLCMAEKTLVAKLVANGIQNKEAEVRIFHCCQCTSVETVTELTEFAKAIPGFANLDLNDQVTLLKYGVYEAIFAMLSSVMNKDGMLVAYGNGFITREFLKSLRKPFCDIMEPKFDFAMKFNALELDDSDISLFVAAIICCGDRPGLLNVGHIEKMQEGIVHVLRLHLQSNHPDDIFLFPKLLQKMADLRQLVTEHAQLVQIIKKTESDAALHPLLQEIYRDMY
Procedure: (§1) Cos-7 cells (African green monkey kidney fibroblasts, commonly used tool cells) were cultured in a 10 cm cell culture dish in a DMEM complete medium containing 10% fetal bovine serum. When the cells grew to a density of about 70%, the medium was replaced with a fresh medium for later transfection. […] The plasmid working solution was then added to the cell culture dish for cell transfection. […] Test compounds were prepared into appropriate test concentrations with a complete medium and then added to the 96-well plate. […] 10 μL of lysate was pipetted into a white opaque 384-well plate, and then 10 μL of reporter gene assay buffer (purchased from Shanghai Beyotime Biological Tech. Co., Ltd.) was added. The bioluminescence was detected by using a multimode microplate reader, and the corresponding half maximal effective concentration (EC50) value was calculated according to the detection value.

[2] = biological target: T2, PPARδ (Homo sapiens, UniProt Q03181); assay: Gal4-PPARδ(LBD) reporter gene agonistic activity assay in Cos-7 cells; assay type: cell-based; conditions: for agonistic activity for PPARδ (EC50 level, in words): Cos-7 reporter assay
T2 construct: expressed in transfected cells; host or cells: Cos-7
T2 sequence (Q03181 139-441 limits assumed): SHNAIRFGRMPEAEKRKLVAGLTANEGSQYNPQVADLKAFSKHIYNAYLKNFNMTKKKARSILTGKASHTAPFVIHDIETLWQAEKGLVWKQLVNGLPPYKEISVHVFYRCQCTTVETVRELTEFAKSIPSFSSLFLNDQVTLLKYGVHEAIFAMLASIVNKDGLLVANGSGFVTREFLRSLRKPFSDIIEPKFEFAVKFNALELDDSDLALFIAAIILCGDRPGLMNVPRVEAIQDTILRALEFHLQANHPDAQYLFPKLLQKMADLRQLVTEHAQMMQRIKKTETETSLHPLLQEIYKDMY
Procedure: as §1

[3] = biological target: T3, PPARγ (Homo sapiens, UniProt P37231); assay: Gal4-PPARγ(LBD) reporter gene agonistic activity assay in Cos-7 cells; assay type: cell-based
T3 construct: hPPARγ (281aa-554aa); expressed in transfected cells; host or cells: Cos-7
T3 sequence (P37231 232-505 limits assumed): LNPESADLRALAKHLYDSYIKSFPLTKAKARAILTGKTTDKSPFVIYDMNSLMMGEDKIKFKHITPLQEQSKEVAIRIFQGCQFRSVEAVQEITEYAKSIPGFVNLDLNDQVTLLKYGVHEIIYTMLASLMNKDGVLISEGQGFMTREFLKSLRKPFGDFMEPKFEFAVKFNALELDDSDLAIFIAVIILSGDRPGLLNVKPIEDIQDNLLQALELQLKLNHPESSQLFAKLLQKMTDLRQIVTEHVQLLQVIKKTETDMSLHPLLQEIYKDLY
Procedure: as §1

[4] = Metabolic stability in human liver microsomes; assay type: in vitro ADME; conditions: for half-life: human liver microsomes 0.75 mg/mL, NADPH, 0-60 min
Procedure: A 500 μM solution of the compound in acetonitrile was prepared and diluted to obtain a 1.5 μM drug working solution with a 0.1 M potassium phosphate solution. The drug working solution was co-incubated with a human liver microsome working solution at a final concentration of 0.75 mg/mL and an NADPH solution (final concentration: 550 μM), and the incubation was terminated by adding an acetonitrile solution at 0 min, 15 min, 30 min, 45 min, and 60 min. The residual amount of the compound that remained in the system at each time point was detected by using LC/MS. The absolute value k of the slope was determined by plotting the natural logarithm of the percentage of the residual amount of the compound with the time, and the calculation was performed according to the formula: T1/2 (half-life)=ln2/k=0.693/k.

[5] = Cos-7 cells, Gal4-PPARδ(LBD) reporter, 16 h, 100% = GW501516 10 nM
[6] = Cos-7 cells, Gal4-PPARγ(LBD) reporter, 16 h, 100% = Rosiglitazone 1 μM

SMILES	EC50 [1] [nM]	EC50 [2, 5] [nM]	EC50 [3, 6] [nM]	agonistic activity for PPARα (EC50 level, in words) [1]	EC50 [2] [nM]	agonistic activity for PPARδ (EC50 level, in words) [2]	metabolic stability in human liver microsomes (in words) [4]	half-life [4] [h]	EC50 [3] [nM]
COc1ccc(-n2cnn(Cc3cc(C)c(OC(C)(C)C(=O)O)c(C)c3)c2=O)cc1 [Compound 107, 2-(4-((4-(4-Methoxyphenyl)-5-oxo-4,5-dihydro-1H-1,2,4-triazol-1-yl)methyl)-2,6-dimethylphenoxy)-2-methylpropionic acid]	144	278	2020	–	–	–	–	–	–
Cc1cc(Cn2ncn(-c3ccc(C(F)(F)F)cc3)c2=O)cc(Cl)c1OC(C)(C)C(=O)O [Compound 143, 2-(2-Chloro-6-methyl-4-((5-oxo-4-(4-(trifluoromethyl)phenyl)-4,5-dihydro-1H-1,2,4-triazol-1-yl)methyl)phenoxy)-2-methylpropionic acid]	9	–	1800	at nanomolar levels	15	at nanomolar levels	very good metabolic stability in human liver microsomes	> 2	–
Cc1cc(Cn2ncn(-c3ccc(C(F)(F)F)cc3)c2=O)cc(C(F)(F)F)c1OC(C)(C)C(=O)O [Compound 165, 2-Methyl-2-(2-methyl-4-((5-oxo-4-(4-(trifluoromethyl)phenyl)-4,5-dihydro-1H-1,2,4-triazol-1-yl)methyl)-6-(trifluoromethyl)phenoxy)propionic acid]	–	–	812	–	1	at nanomolar levels	very good metabolic stability in human liver microsomes	> 2	–
CC(C)(Oc1ccc(Cn2ncn(-c3ccc(C(F)(F)F)cc3)c2=O)cc1Cl)C(=O)O [Compound 125, 2-(2-Chloro-4-((5-oxo-4-(4-(trifluoromethyl)phenyl)-4,5-dihydro-1H-1,2,4-triazol-1-yl)methyl)phenoxy)-2-methylpropionic acid]	162	229	2780	–	–	–	–	–	–
CC(C)(Oc1c(Cl)cc(Cn2ncn(-c3ccc(C(F)(F)F)cc3)c2=O)cc1Cl)C(=O)O [Compound 129, 2-(2,6-Dichloro-4-((5-oxo-4-(4-(trifluoromethyl)phenyl)-4,5-dihydro-1H-1,2,4-triazol-1-yl)methyl)phenoxy)-2-methylpropionic acid]	23	–	4910	at nanomolar levels	–	–	very good metabolic stability in human liver microsomes	> 2	–
Cc1cc(Cn2ncn(-c3ccc(OC(F)(F)F)cc3)c2=O)ccc1OC(C)(C)C(=O)O [Compound 79, 2-Methyl-2-(2-methyl-4-((5-oxo-4-(4-(trifluoromethoxy)phenyl)-4,5-dihydro-1H-1,2,4-triazol-1-yl)methyl)phenoxy)propionic acid]	341	620	1880	–	–	–	–	–	–
Cc1cc(SCn2ncn(-c3ccc(C(F)(F)F)cc3)c2=O)ccc1OCC(=O)O [Compound 16, 2-(2-Methyl-4-(((5-oxo-4-(4-(trifluoromethyl)phenyl)-4,5-dihydro-1H-1,2,4-triazol-1-yl)methyl)thio)phenoxy)acetic acid]	–	–	–	–	–	–	very good metabolic stability in human liver microsomes	> 2	–
Cc1cc(Cn2ncn(-c3ccc(Br)cc3)c2=O)cc(C)c1OC(C)(C)C(=O)O [Compound 55, 2-(4-((4-(4-Bromophenyl)-5-oxo-4,5-dihydro-1H-1,2,4-triazol-1-yl)methyl)-2,6-dimethylphenoxy)-2-methylpropionic acid]	–	–	1780	–	22	at nanomolar levels	very good metabolic stability in human liver microsomes	> 2	–
CC(C)(Oc1ccc(Cn2ncn(-c3ccc(OC(F)(F)F)cc3)c2=O)cc1Cl)C(=O)O [Compound 105]	172	323	4920	–	–	–	–	–	–
Cc1ccc(-n2cnn(Cc3cc(C)c(OC(C)(C)C(=O)O)c(C)c3)c2=O)cc1 [Compound 65, 2-(2,6-Dimethyl-4-((5-oxo-4-(p-tolyl)-4,5-dihydro-1H-1,2,4-triazol-1-yl)methyl)phenoxy)-2-methylpropionic acid]	180	248	955	–	–	–	–	–	–
Cc1cc(Cn2ncn(-c3ccc(Cl)cc3)c2=O)cc(C)c1OC(C)(C)C(=O)O [Compound 67, 2-(4-((4-(4-Chlorophenyl)-5-oxo-4,5-dihydro-1H-1,2,4-triazol-1-yl)methyl)-2,6-dimethylphenoxy)-2-methylpropionic acid]	167	47	1830	–	–	–	–	–	–
CC(C)(Oc1ccc(Cn2ncn(-c3ccc(OC(F)(F)F)cc3)c2=O)cc1OC(F)(F)F)C(=O)O [Compound 103, 2-Methyl-2-(4-((5-oxo-4-(4-(trifluoromethoxy)phenyl)-4,5-dihydro-1H-1,2,4-triazol-1-yl)methyl)-2-(trifluoromethoxy)phenoxy)propionic acid]	215	278	4680	–	–	–	–	–	–
Cc1cc(SCn2ncn(-c3ccc(C(F)(F)F)cc3)c2=O)cc(C)c1OC(C)(C)C(=O)O [Compound 198, 2-(2,6-Dimethyl-4-(((5-oxo-4-(4-(trifluoromethyl)phenyl)-4,5-dihydro-1H-1,2,4-triazol-1-yl)methyl)thio)phenoxy)-2-methylpropionic acid]	289	–	2850	–	–	–	–	–	–
Cc1cc(Cn2ncn(-c3ccccc3)c2=O)cc(C)c1OC(C)(C)C(=O)O [Compound 63, 2-(2,6-Dimethyl-4-((5-oxo-4-phenyl-4,5-dihydro-1H-1,2,4-triazol-1-yl)methyl)phenoxy)-2-methylpropionic acid]	1030	–	–	–	–	–	–	–	8650
CCc1cc(Cn2ncn(-c3ccc(OC(F)(F)F)cc3)c2=O)cc(CC)c1OC(C)(C)C(=O)O [Compound 189, 2-(2,6-Diethyl-4-((5-oxo-4-(4-(trifluoromethoxy)phenyl)-4,5-dihydro-1H-1,2,4-triazol-1-yl)methyl)phenoxy)-2-methylpropionic acid]	59	42	–	at nanomolar levels	–	at nanomolar levels	–	–	2190
CCc1ccc(-n2cnn(Cc3cc(C)c(OC(C)(C)C(=O)O)c(C)c3)c2=O)cc1 [Compound 131, 2-(4-((4-(4-Ethylphenyl)-5-oxo-4,5-dihydro-1H-1,2,4-triazol-1-yl)methyl)-2,6-dimethylphenoxy)-2-methylpropionic acid]	14	67	1180	at nanomolar levels	–	at nanomolar levels	very good metabolic stability in human liver microsomes	> 2	–
